In patent US5807981A (FibroGen Inc., priority 1995, dated 1998):
Residues, ends and D or L forms follow the SMILES beside them.

Target: T1, C-proteinase (Homo sapiens, UniProt P13497)
T1 sequence (P13497 121-986): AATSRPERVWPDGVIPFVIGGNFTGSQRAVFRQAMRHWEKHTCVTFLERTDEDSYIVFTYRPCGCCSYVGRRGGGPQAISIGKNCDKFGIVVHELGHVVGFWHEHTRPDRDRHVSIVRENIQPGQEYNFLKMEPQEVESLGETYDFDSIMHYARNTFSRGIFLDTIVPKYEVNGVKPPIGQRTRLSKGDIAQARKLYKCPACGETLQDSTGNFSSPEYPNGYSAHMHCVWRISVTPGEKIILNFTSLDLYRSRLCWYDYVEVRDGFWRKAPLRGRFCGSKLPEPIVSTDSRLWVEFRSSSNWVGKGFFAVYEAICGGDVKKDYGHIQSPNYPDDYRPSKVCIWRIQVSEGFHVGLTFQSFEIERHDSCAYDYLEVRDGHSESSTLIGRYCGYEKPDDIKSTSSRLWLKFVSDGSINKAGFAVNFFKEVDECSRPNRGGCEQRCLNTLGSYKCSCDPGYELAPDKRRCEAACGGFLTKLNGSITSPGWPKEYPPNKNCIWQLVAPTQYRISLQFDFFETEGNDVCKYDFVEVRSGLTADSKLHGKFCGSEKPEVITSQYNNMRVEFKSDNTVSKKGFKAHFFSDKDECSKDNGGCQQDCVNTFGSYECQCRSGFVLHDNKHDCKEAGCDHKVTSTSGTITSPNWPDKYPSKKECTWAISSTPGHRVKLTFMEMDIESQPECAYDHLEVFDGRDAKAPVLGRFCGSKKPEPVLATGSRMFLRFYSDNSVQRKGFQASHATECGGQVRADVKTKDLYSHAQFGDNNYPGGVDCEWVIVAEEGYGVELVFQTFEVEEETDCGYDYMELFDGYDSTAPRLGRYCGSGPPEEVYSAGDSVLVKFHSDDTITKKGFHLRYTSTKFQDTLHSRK
Test: Cleavage of synthetic procollagen cleavage-site peptides by active C-proteinase
Type: biochemical
Conditions: for Cleavability: Table 1, cleavability of peptides resembling the C-proteinase cleavage site of procollagen; for cleavability by C-proteinase: truncated and extended peptides compared with original peptide SEQ ID NO:6
Description: A variety of short peptides comprising five (5) to twelve (12) amino acids was synthesized and tested for cleavage by active C-proteinase.
First, four peptides, each comprising eight (8) amino acids corresponding to the cleavage region of several procollagens were synthesized. See, TABLE 1, SEQ ID NO:3, SEQ ID NO:4, SEQ ID NO:5, and SEQ ID NO:6. All four peptides were examined for cleavability by C-proteinase. […] Indeed, one would expect that recognition of the cleavage site depends on structural requirements which cannot be resembled by only eight (8) amino acids.
Second, a series of peptides was prepared based on the sequence of original peptide SEQ ID NO:6. Specifically, peptides were designed resembling the core of the peptide comprising SEQ ID NO:6, but with truncations of one, two and three amino acids from either side of the cleavage site. A further peptide was synthesized resembling two additional amino acids at both the N-terminus and C-terminus of the original peptide comprising SEQ ID NO:6.
Removing two or more amino acids from either end of the original SEQ ID NO:6 sequence, however, yielded a non-cleavable peptide (SEQ ID NOS:9, 10, 12, 13).

Row | Structure (SMILES) | Cleavability | cleavability by C-proteinase
1 | CSCC[C@H](NC(=O)[C@@H]1CCCN1C(=O)[C@H](CCC(=O)O)NC(=O)[C@H](CC(=O)O)NC(=O)CNC(=O)[C@H](Cc1ccc(O)cc1)NC(=O)[C@H](Cc1ccc(O)cc1)NC(C)=O)C(N)=O [SEQ ID NO:11, Ac-YYG-DEPM-NH2] (Ac-YYGDEPM-NH2) | excellent | did not drastically alter its cleavability
2 | CSCC[C@H](NC(=O)[C@@H]1CCCN1C(=O)[C@H](CCC(=O)O)NC(=O)[C@H](CC(=O)O)NC(=O)CNC(=O)[C@H](Cc1ccc(O)cc1)NC(=O)[C@H](Cc1ccc(O)cc1)NC(=O)[C@@H]1CCCN1C(=O)[C@H](C)NC(=O)[C@H](Cc1ccccc1)NC(C)=O)C(=O)N[C@@H](CC(=O)O)C(=O)N[C@@H](Cc1ccccc1)C(N)=O [SEQ ID NO:7, Ac-FAPYYG-DEPMDF-NH2] (Ac-FAPYYGDEPMDF-NH2) | excellent | did not impact its cleavability
3 | CSCC[C@H](NC(=O)[C@@H]1CCCN1C(=O)[C@H](CCC(=O)O)NC(=O)[C@H](CC(=O)O)NC(=O)CNC(C)=O)C(N)=O [SEQ ID NO:13, Ac-G-DEPM-NH2] (Ac-GDEPM-NH2) | none | non-cleavable
4 | CC(=O)N1CCC[C@H]1C(=O)N[C@@H](Cc1ccc(O)cc1)C(=O)N[C@@H](Cc1ccc(O)cc1)C(=O)NCC(=O)N[C@@H](CC(=O)O)C(=O)N[C@@H](CCC(=O)O)C(=O)N1CCC[C@H]1C(N)=O [SEQ ID NO:8, Ac-PYYG-DEP-NH2] (Ac-PYYGDEP-NH2) | excellent | did not drastically alter its cleavability
5 | CSCC[C@H](NC(=O)[C@@H]1CCCN1C(=O)[C@H](CCC(=O)O)NC(=O)[C@H](CC(=O)O)NC(=O)CNC(=O)[C@H](Cc1ccc(O)cc1)NC(C)=O)C(N)=O [SEQ ID NO:12, Ac-YG-DEPM-NH2] (Ac-YGDEPM-NH2) | none | non-cleavable
6 | CC(=O)N[C@@H](Cc1ccccc1)C(=O)N[C@@H](Cc1ccc(O)cc1)C(=O)N[C@@H](CCCNC(=N)N)C(=O)N[C@@H](C)C(=O)N[C@@H](CC(=O)O)C(=O)N[C@@H](CCC(N)=O)C(=O)N1CCC[C@H]1C(=O)N[C@@H](CCCNC(=N)N)C(N)=O [SEQ ID NO:4, Ac-FYRA-DQPR-NH2] (Ac-FYRADQPR-NH2) | slight | cleaved by C-proteinase
7 | CC(=O)N1CCC[C@H]1C(=O)N[C@@H](Cc1ccc(O)cc1)C(=O)N[C@@H](Cc1ccc(O)cc1)C(=O)NCC(=O)N[C@@H](CC(=O)O)C(N)=O [SEQ ID NO:10, Ac-PYYG-D-NH2] (Ac-PYYGD-NH2) | none | non-cleavable
8 | CSCC[C@H](NC(=O)[C@@H]1CCCN1C(=O)[C@H](CCC(=O)O)NC(=O)[C@H](CC(=O)O)NC(=O)CNC(=O)[C@H](Cc1ccc(O)cc1)NC(=O)[C@H](Cc1ccc(O)cc1)NC(=O)[C@@H]1CCCN1C(C)=O)C(N)=O [SEQ ID NO:6, Ac-PYYG-DEPM-NH2] (Ac-PYYGDEPM-NH2) | excellent | cleaved much more efficiently than the three others
9 | CC(=O)N[C@@H](Cc1ccc(O)cc1)C(=O)N[C@@H](Cc1ccc(O)cc1)C(=O)N[C@@H](CCCNC(=N)N)C(=O)N[C@@H](C)C(=O)N[C@@H](CC(=O)O)C(=O)N[C@@H](CC(=O)O)C(=O)N[C@@H](C)C(=O)N[C@@H](CC(N)=O)C(N)=O [SEQ ID NO:3, Ac-YYRA-DDAN-NH2] (Ac-YYRADDAN-NH2) | slight | cleaved by C-proteinase
10 | CSCC[C@H](NC(=O)[C@H](Cc1ccc(O)cc1)NC(C)=O)C(=O)N[C@@H](CCCNC(=N)N)C(=O)N[C@@H](C)C(=O)N[C@@H](CC(=O)O)C(=O)N[C@@H](CCC(N)=O)C(=O)N[C@@H](C)C(=O)N[C@@H](C)C(N)=O [SEQ ID NO:5, Ac-YMRA-DQAA-NH2] (Ac-YMRADQAA-NH2) | slight | cleaved by C-proteinase
11 | CC(=O)N1CCC[C@H]1C(=O)N[C@@H](Cc1ccc(O)cc1)C(=O)N[C@@H](Cc1ccc(O)cc1)C(=O)NCC(=O)N[C@@H](CC(=O)O)C(=O)N[C@@H](CCC(=O)O)C(N)=O [SEQ ID NO:9, Ac-PYYG-DE-NH2] (Ac-PYYGDE-NH2) | none | non-cleavable
